What was measured:
[1] = Particle size and polydispersity index (PDI) by dynamic light scattering; format: physicochemical; details: luciferase mRNA lipid nanoparticles prepared from the compound; 25°C
Protocol: (§1) Luciferase mRNA was diluted in a 10-100 mM sodium citrate buffer solution at pH 4.0, with the concentration of the mRNA solution being 135 µg/ml. A mixed lipid ethanol solution was prepared at a molar ratio of ionizable cationic lipid compound (each exemplary compound) : DSPC: cholesterol : 2-[(polyethylene glycol)-2000]-N,N-ditetradecylacetamide (ALC-0159) of 50:10:38.5:1.5. The mRNA solution and the mixed lipid solution were mixed at a volume ratio of 3:1 in a nanodrug preparation device, followed by ultrafiltration to obtain luciferase mRNA lipid nanoparticles.
(§2) • 1. Determination of particle size and polydispersity index (PDI): The average particle size and PDI of the nanoparticle sample solutions in the examples were determined by dynamic light scattering using Malvern ZetaSizer Nano ZS90. The measurement angle was 90°, the refractive index of the dispersant was 1.330, and the test temperature was 25°C. • 2. Zeta potential: The Zeta potential of the nanoparticle sample solutions in the examples was determined by electrophoretic light scattering (ELS) using Malvern ZetaSizer Nano ZS90. Refractive index of the dispersant: 1.330, Test temperature: 25°C. • 3. Encapsulation Rate: The Encapsulation Rate of luciferase mRNA in lipid nanoparticles was determined using a Quant-it Ribogreen RNA quantitation kit (ThermoFisher Scientific, UK) in accordance with the manufacturer's instructions.

[2] = Zeta potential by electrophoretic light scattering; format: physicochemical; details: luciferase mRNA lipid nanoparticles prepared from the compound; 25°C
Protocol: as §1, §2

[3] = Encapsulation Rate of luciferase mRNA in lipid nanoparticles (Quant-it Ribogreen RNA kit); format: physicochemical; details: luciferase mRNA in lipid nanoparticles prepared from the compound
Protocol: as §1, §2

HEK 293T cells = test: In vitro transfection efficiency of luciferase mRNA lipid nanoparticles (luciferase activity); format: cell-based; details: 100 ng dose, 96-well plate, 24 h incubation; luciferase mRNA lipid nanoparticles
Protocol: as §1
HEK-293T cells were used to evaluate the in vitro transfection efficiency of lipid nanoparticle compositions prepared from each exemplary compound. HEK293T cells were routinely cultured in DMEM + 10% FBS medium to ensure the cells were in the logarithmic growth phase. One day before transfection, the cells were seeded into a 96-well culture plate at an appropriate cell density and grown overnight. At the time of transfection, the cell confluency needed to reach 70-90%. The lipid nanoparticle compositions prepared from each exemplary compound were diluted into 4 different dose concentrations with DMEM and added to the 96-well cell culture plate, resulting in final concentrations of 400 ng, 200 ng, 100 ng and 50 ng per well, respectively. luciferase plasmid transfected using Lipofectamine 2000 was used as the positive control (PC). After incubation for 24 h in a 5% CO2 incubator at 37°C, the substrate was added to the wells, and the luciferase activity was determined using a microplate reader. […] The luciferase activity of the luciferase mRNA lipid nanoparticles prepared from Compound 1005 in HEK293T cells is shown in Fig. 1.

female Balb/c mice = test: In vivo transfection efficiency and safety of luciferase mRNA lipid nanoparticles (whole-body live imaging); details: tail vein injection, single dose 0.3 mpk, 6 h after administration
Protocol: as §1
6-8 week-old female Balb/c mice were used to evaluate the in vivo transfection efficiency and safety of lipid nanoparticle compositions prepared from each exemplary compound. The lipid nanoparticles prepared from each exemplary compound were administered by tail vein injection at a single dose of 0.3 mpk. At specific time points after administration (e.g., 3 h, 6 h), live imaging of the animals was performed using a PerkinElmer small animal imaging system to determine the bioluminescent signal. The whole-body live imaging of mice at 3 h/6 h after intravenous administration of luciferase mRNA lipid nanoparticles prepared from Compound 1008 is shown in Fig. 2. […] Table 3 Summary of in vitro/in vivo Activity Evaluation of Lipid Nanoparticles Prepared from Compounds

| Structure (SMILES) | Particle Size [1] [nm] | Polydispersity Index (PDI) [1] | Zeta Potential [2] [mV] | Encapsulation Rate [3] [%] | HEK 293T Cell Luciferase Activity (HEK 293T cells) | Mouse Whole-Body Average Fluorescence Signal (female Balb/c mice) |
| --- | --- | --- | --- | --- | --- | --- |
| CCCCCCCCCCCCCCCC(CC)C(=O)OCC(COC(=O)C(CC)CCCCCCCCCCCCCCC)(COC(=O)C(CC)CCCCCCCCCCCCCCC)NCCC(=O)NCCN(CCO)CCO (racemic) [Compound 1014] | 85.4 | 0.111 | 3.06 | 70.3 | 2.86×10^6 RLU | 3.55×10^4 p/s/cm^2/sr |
| CCCCCCCCCC(CCCCCCCC)C(=O)OCC(COC(=O)C(CCCCCCCC)CCCCCCCCC)(COC(=O)C(CCCCCCCC)CCCCCCCCC)NCCN(C)CCCCO (racemic) [Compound 3425] | 82.37 | 0.021 | -21.2 | 89.4 | 6.86×10^6 RLU | 1.56×10^7 p/s/cm^2/sr |
| CCCCCCCCCCCCCCCC(CC)C(=O)OCC(COC(=O)C(CC)CCCCCCCCCCCCCCC)(COC(=O)C(CC)CCCCCCCCCCCCCCC)NC(=O)CN (stereo not drawn) [Compound 1003] | 62.59 | 0.127 | -3.64 | 95.4 |  |  |
| CCCCCCCCCCCCCCCC(CC)C(=O)OCC(COC(=O)C(CC)CCCCCCCCCCCCCCC)(COC(=O)C(CC)CCCCCCCCCCCCCCC)NCCC(=O)NCCN(CCCO)CCCO (stereo not drawn) [Compound 1015] | 102.3 | 0.136 | 4.27 | 80.3 | 6.27×10^7 RLU | 1.43×10^4 p/s/cm^2/sr |
| CCCCCCCCCCCCCCCC(CC)C(=O)OCC(COC(=O)C(CC)CCCCCCCCCCCCCCC)(COC(=O)C(CC)CCCCCCCCCCCCCCC)NCCC(=O)NCCN(C)CCO (stereo not drawn) [Compound 1025] | 77.74 | 0.072 | 2.84 | 64.5 |  | 4.20×10^5 p/s/cm^2/sr |
| CCCCCCCCCC(CCCCCCCC)C(=O)OCC(COC(=O)C(CCCCCCCC)CCCCCCCCC)(COC(=O)C(CCCCCCCC)CCCCCCCCC)NCCC(=O)NCCN1CCNCC1 (stereo not drawn) [Compound 1111] | 110.3 | 0.103 | -0.902 | 83.2 | 3.29×10^4 RLU | 3.10×10^5 p/s/cm^2/sr |
| CCCCCCCCCC(CCCCCCCC)C(=O)OCC(COC(=O)C(CCCCCCCC)CCCCCCCCC)(COC(=O)C(CCCCCCCC)CCCCCCCCC)NCCC(=O)NCCN(C)CCn1cnc2c(N)ncnc21 (stereo not drawn) [Compound 1139] | 74.13 | 0.064 | -7.8 | 91.1 | 4.23×10^5 RLU | 3.87×10^5 p/s/cm^2/sr |
| CCCCCCCCCCCCCCCC(CC)C(=O)OCC(COC(=O)C(CC)CCCCCCCCCCCCCCC)(COC(=O)C(CC)CCCCCCCCCCCCCCC)NCCC(=O)NCCN(C)CCNC(=N)N (stereo not drawn) [Compound 1140] | 63.21 | 0.127 | 4.39 | 92.4 | 2.13×10^4 RLU | 6.21×10^4 p/s/cm^2/sr |
| CCCCCCCCCC(CCCCCCCC)C(=O)OCC(COC(=O)C(CCCCCCCC)CCCCCCCCC)(COC(=O)C(CCCCCCCC)CCCCCCCCC)NC(=O)CNCCN(C)CCCCO (stereo not drawn) [Compound 3423] | 87.5 | 0.086 | -18.6 | 96.0 | 3.97×10^5 RLU | 5.53×10^5 p/s/cm^2/sr |
| CCCCCCCCCCCCCCCC(CC)C(=O)OCC(COC(=O)C(CC)CCCCCCCCCCCCCCC)(COC(=O)C(CC)CCCCCCCCCCCCCCC)NCCN(C)CCCCO (stereo not drawn) [Compound 3424] | 94.71 | 0.115 | -0.327 | 88.9 | 1.81×10^4 RLU | 9.34×10^4 p/s/cm^2/sr |
| CCCCCCCCCCCCCCCC(CC)C(=O)OCC(COC(=O)C(CC)CCCCCCCCCCCCCCC)(COC(=O)C(CC)CCCCCCCCCCCCCCC)NCCCCCCN(C)CCCCO (stereo not drawn) [Compound 3426] | 85.51 | 0.104 | 2.23 | 95.5 | 3.01×10^5 RLU | 5.67×10^6 p/s/cm^2/sr |
| CCCCCCCCCCCCCCCC(CC)C(=O)OCC(COC(=O)C(CC)CCCCCCCCCCCCCCC)(COC(=O)C(CC)CCCCCCCCCCCCCCC)NC(=O)CNCCN(C)CCCCO (stereo not drawn) [Compound 3427] | 70.81 | 0.126 | 3.8 | 96.1 | 5.18×10^5 RLU | 8.24×10^6 p/s/cm^2/sr |
| CCCCCCCCCC(CCCCCCCC)C(=O)OCC(COC(=O)C(CCCCCCCC)CCCCCCCCC)(COC(=O)C(CCCCCCCC)CCCCCCCCC)NCCCCN(C)CCCCO (stereo not drawn) [Compound 3428] | 83.84 | 0.046 | -17.8 | 96.6 | 3.23×10^5 RLU | 2.04×10^5 p/s/cm^2/sr |
